Test results reported in patent US6469002B1, “Imidazolidine compounds” (Millennium Pharmaceuticals, Inc., priority 2001, dated 2002).

Target: T1, CXCR3 (Homo sapiens, UniProt P49682)
T1 construct: expressed in transfected cells
T1 sequence (P49682 1-368): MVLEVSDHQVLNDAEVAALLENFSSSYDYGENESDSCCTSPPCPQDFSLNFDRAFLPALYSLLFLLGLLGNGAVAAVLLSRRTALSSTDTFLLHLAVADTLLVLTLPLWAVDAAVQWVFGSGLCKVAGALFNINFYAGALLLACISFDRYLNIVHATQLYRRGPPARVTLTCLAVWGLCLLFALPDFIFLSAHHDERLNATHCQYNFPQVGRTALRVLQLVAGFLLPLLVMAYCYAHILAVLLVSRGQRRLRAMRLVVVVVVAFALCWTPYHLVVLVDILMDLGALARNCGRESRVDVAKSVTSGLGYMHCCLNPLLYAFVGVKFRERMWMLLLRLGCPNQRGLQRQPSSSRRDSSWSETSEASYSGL
Experiment: CXCR3/IP-10 radioligand binding (125I-IP-10 competition, CXCR3.L1/2 cell membranes)
Details: test compound 10 μmol/L, 125I-labeled IP-10 binding to CXCR3.L1/2 transfectant cell membrane
Description: The activity of the compounds of the present invention can be assessed using a suitable assay, such as a receptor binding assay, a chemotaxis assays, an extracellular acidification assay or a calcium flux assay (see, for example, Hesselgesser et al., J. Biol. Chem. 273(25):15687-15692 (1998) and WO 98/02151). For example, as described herein, small organic molecule antagonists of CXCR3/IP-10 binding have been identified utilizing cells engineered to express recombinant human CXCR3 (CXCR3.L1/2) and which bind ^125I-IP-10 and chemotax in response to IP-10, Mig or I-TAC. Specifically, a high through-put receptor binding assay, which monitors ^125I-IP-10 binding to CXCR3.L1/2 cell membranes, was used to identify small molecule antagonists which block binding of IP-10, Mig or I-TAC to CXCR3.
CXCR3.L1/2 cells were pelleted by centrifugation and stored at −80° C. The cells were lysed by thawing and resuspending at about 1.5×10^7 cells/ml in a hypotonic buffer (5 m mol/L HEPES (pH 7.2), 2 mmol/L EDTA, 10 μg/ml each leupeptin, aprotinin, and chymostatin, and 100 μg/ml PMSF (all from Sigma, St. Louis)). Nuclei and cellular debris was removed by centrifugation ([…], at 4° C.) for 10 min. The supematant was transferred to chilled centrifuge tubes (Nalge, Rochester, N.Y.) and the membrane fraction was recovered by centrifugation (25,000 g at 4° C.) for 45 min. The membrane pellet was resuspended in freezing buffer (10 mM HEPES (pH 7.2), 300 mmol/L Sucrose, 5 μg/ml each of leupeptin, aprotinin, and chymostatin, and 10 μg/ml PMSF). The total protein concentration was determined using a coomassie blue staining protein concentration assay kit (BioRad). The membrane preparation was aliquoted and stored at −80° C. until time of use.
CXCR3/IP-10 binding was performed in 96-well polypropylene plates (Costar) in a final volume of 0.1 ml of HBB buffer (50 mmol/L Hepes pH 7.4, 1 mmol/L CaCl2, 5 mmol/L MgCl2, 0.02% sodium azide, 0.5% BSA (bovine serum albumin)) containing 1 to 5 μg of CXCR3.L1/2 transfectant cell membrane protein and 0.05 to 0.2 nmol/L ^125I-labeled IP-10 (NEN, Boston, Mass.). Competition binding experiments were performed by including variable concentrations of unlabeled IP-10 or test compound. Nonspecific binding was determined following the addition of a 250 nmol/L unlabelled IP-10. Samples were incubated for 60 min at room temperature, and bound and free tracer (^125I-IP10) were separated by filtration through 96-well GF/B filterplates (Packard) presoaked in 0.3% polyethyleneimine. The filters were washed in HBB further supplemented with 0.5 mol/L NaCl, dried, and the amount of bound radioactivity determined by liquid scintillation counting. The competition is presented as the percent specific binding as calculated by 100×[(S-B)/(T-B)], where S is the radioactivity bound for each sample, B is background binding, and T is total bound in the absence of competitors. Duplicates were used throughout the experiments.

Structure (SMILES)	% inhibition at 10 μmol/L (Table 5) [%]	inhibition at 10 µM (Table 6) [%]	further results
N#CC(C#N)=C1N(CCN(Cc2ccccc2)Cc2cccc(CN3CCCCC3)c2)CCN1Cc1cccc2ccccc12 [Compound 18, 1-[2-{N-Benzyl-N-(3-piperidinomethylbenzyl)amino}ethyl]-3-(1-naphthylmethyl)-2-imidazolidinylidenepropanedinitrile]	67		
CCN(CCN1CCN(Cc2cccc3ccccc23)C1=C(C#N)C#N)C(=O)c1ccc(CN2CCCCC2)cc1 [Compound 27, 1-[2-{N-Ethyl-N-(4-(1-piperidinomethyl)benzoyl)amino}ethyl]-3-(1-naphthylmethyl)-2-imidazolidinylidenepropanedinitrile]		72	
CCCNCc1ccc(C(=O)N(CC)CCN2CCN(Cc3cc(Cl)cc(Cl)c3)C2=C(C#N)C#N)cc1 [Compound 30, 1-[2-{N-Ethyl-N-(4-(1-propylaminomethyl)benzoyl)amino}ethyl]-3-(3,5-dichlorobenzyl)-2-imidazolidinylidenepropanedinitrile]		73	
CCN(CCN1CCN(Cc2cccc3ccccc23)C1=C(C#N)C#N)Cc1ccc(CN2CCCCC2)cc1 [Compound 2, 1-[2-{N-Ethyl-N-(4-piperidinomethylbenzyl)amino}ethyl]-3-(1-naphthylmethyl)-2-imidazolidinylidenepropanedinitrile]	96		
N#CC(C#N)=C1N(CCCNCc2ccc(CN3CCCCC3)cc2)CCN1Cc1cccc2ccccc12 [Compound 20, 1-[2-{N-(4-(1-Piperidinomethyl)benzyl)amino}propyl]-3-(1-naphthylmethyl)-2-imidazolidinylidenepropanedinitrile]			inhibition at 10 µM (Table 5): 74%
CCN(CCN1CCN(Cc2cccc3ccccc23)C1=C(C#N)C#N)Cc1ccc(CN2CCN(C)CC2)cc1 [Compound 8, 1-[2-{N-Ethyl-N-(4-(4-methylpiperazinyl)methylbenzyl)amino}ethyl]-3-(1-naphthylmethyl)-2-imidazolidinylidenepropanedinitrile]	86		
